# Assay results published in publication PMC4669708 (Cell Death & Disease, 2015).
# What was measured:
# LCK = LCK (Homo sapiens, UniProt P06239); assay: c-ponatinib pulldown LC-MS/MS; format: binding
# Outline: (§1)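 Read-out: interaction P-value combining Mascot scores, Phenyx scores and spectral counts (Fisher's method), plus fold reduction of median spectral counts on free-compound competition. Proteins were enriched from 10 mg cell lysate on c-ponatinib beads, then trypsin-digested for LC-MS/MS.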
# NAP1L1 = molecular target: T1, NAP1L1 (Homo sapiens, UniProt P55209); assay: c-ponatinib pulldown LC-MS/MS; format: binding
# T1 sequence (P55209 1-391): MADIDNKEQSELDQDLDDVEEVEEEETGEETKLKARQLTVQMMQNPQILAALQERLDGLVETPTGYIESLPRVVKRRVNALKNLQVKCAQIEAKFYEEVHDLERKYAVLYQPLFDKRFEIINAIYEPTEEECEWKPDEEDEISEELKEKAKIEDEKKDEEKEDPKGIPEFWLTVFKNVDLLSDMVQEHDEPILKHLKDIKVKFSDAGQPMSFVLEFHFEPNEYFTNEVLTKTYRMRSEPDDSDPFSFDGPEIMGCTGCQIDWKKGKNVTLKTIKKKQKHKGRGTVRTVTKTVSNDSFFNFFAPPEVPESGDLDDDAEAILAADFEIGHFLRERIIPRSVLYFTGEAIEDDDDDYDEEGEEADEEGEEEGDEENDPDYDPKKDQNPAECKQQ
# Outline: as §1
# PLEKHF2 = molecular target: T2, PLEKHF2 (Homo sapiens, UniProt Q9H8W4); assay: c-ponatinib pulldown LC-MS/MS; format: binding
# T2 sequence (Q9H8W4 1-249): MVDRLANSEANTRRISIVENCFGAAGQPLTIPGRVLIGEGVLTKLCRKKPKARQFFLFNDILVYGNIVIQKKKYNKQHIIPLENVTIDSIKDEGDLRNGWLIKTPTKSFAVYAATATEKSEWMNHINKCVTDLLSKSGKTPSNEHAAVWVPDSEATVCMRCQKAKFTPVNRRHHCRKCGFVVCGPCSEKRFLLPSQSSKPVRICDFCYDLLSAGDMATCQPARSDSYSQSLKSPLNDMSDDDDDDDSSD
# Outline: as §1
# MAPK12 = molecular target: T3, MAPK12 (Homo sapiens, UniProt P53778); assay: c-ponatinib pulldown LC-MS/MS; format: binding
# T3 sequence (P53778 1-367): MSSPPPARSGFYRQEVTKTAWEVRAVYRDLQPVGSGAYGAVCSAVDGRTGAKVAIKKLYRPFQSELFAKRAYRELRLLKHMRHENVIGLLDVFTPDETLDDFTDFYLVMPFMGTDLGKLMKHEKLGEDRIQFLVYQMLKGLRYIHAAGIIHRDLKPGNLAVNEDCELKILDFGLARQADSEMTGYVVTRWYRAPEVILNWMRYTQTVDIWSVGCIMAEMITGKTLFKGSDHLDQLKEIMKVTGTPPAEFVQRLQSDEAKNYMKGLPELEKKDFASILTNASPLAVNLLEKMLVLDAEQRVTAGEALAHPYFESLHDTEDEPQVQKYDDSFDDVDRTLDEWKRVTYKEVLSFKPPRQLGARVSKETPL
# Outline: as §1
# recombinant RIPK1 = molecular target: T4, recombinant RIPK1 (Homo sapiens, UniProt Q13546); assay: Recombinant kinase assay; format: biochemical; details: 50 μM ATP; Supplementary Figure 4b
# T4 construct: purchased Signalchem R07-10G
# Description: Recombinant RIPK1 or RIPK3 protein was incubated with the substrate MBP in kinase assay buffer (40 mM Tris-HCl pH 7.5, 10 mM MgCl2 and 1 mM DTT) in presence of 50 μM ATP, 5 μCi [γ-32 P]ATP and the indicated inhibitors in a total volume of 20 μl. […] The terminated reactions were spotted onto a SAM2 Biotin Capture membrane (Promega) and further processed according to the manufacturer's instructions. […] Data were normalized to a DMSO-treated control sample. For autoradiography, the reactions were stopped by addition of 5 μl 4x Laemmli buffer and incubated for 5 min at 95 °C.
# LCK, sequence (P06239 whole entry): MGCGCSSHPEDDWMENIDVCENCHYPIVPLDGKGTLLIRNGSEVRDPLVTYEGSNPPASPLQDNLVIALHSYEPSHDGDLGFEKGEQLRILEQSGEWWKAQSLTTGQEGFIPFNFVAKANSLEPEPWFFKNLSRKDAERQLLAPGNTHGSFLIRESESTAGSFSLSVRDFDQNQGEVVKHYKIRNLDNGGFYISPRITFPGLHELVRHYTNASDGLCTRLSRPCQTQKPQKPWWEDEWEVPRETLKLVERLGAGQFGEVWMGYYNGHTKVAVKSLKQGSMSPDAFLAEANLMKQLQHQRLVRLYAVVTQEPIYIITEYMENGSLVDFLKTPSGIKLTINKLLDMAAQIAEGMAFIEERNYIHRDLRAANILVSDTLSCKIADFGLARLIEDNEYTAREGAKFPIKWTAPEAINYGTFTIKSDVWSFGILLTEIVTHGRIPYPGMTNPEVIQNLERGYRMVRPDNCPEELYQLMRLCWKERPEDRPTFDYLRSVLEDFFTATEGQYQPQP
# T4 sequence (Q13546 1-327 limits assumed): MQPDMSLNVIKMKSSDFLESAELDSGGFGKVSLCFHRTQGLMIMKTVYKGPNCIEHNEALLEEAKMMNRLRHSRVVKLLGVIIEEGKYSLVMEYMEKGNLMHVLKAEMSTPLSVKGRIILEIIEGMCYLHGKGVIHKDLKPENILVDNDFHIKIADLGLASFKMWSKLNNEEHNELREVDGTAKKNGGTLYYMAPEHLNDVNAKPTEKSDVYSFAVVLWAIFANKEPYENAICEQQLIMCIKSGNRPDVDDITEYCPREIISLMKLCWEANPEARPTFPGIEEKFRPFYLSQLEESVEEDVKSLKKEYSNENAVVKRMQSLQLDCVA
Av. SC comp. (LCK; + free ponatinib),Total SC comp. (LCK; + free ponatinib),Av. SC (LCK; no competitor),Total SC (LCK; no competitor),Av. SC comp. (NAP1L1; + free ponatinib),Total SC comp. (NAP1L1; + free ponatinib),Av. SC (NAP1L1; no competitor),Total SC (NAP1L1; no competitor),Av. SC comp. (PLEKHF2; + free ponatinib),Total SC comp. (PLEKHF2; + free ponatinib),Av. SC (PLEKHF2; no competitor),Total SC (PLEKHF2; no competitor),Av. SC comp. (MAPK12; + free ponatinib),Total SC comp. (MAPK12; + free ponatinib),Av. SC (MAPK12; no competitor),Total SC (MAPK12; no competitor),SMILES,RIPK1 kinase activity (MBP phosphorylation) (recombinant RIPK1)
0.75,3,98.5,394,1.25,5,2,8,0,0,8.25,33,3.75,15,10.75,43,Cc1ccc(C(=O)Nc2ccc(CN3CCN(CCCN)CC3)c(C(F)(F)F)c2)cc1C#Cc1cnc2cccnn12 [c-ponatinib],–
–,–,–,–,–,–,–,–,–,–,–,–,–,–,–,–,"Cc1ccc(C(=O)Nc2ccc(CN3CCN(C)CC3)c(C(F)(F)F)c2)cc1C#Cc1cnc2cccnn12 [ponatinib, Ponatinib]",strongly blocked phosphorylation
